# Structures can show the parent of a compound that is named as a salt.
# Tests used:
# [1] = molecular target: T1, human neutrophil elastase (Homo sapiens, UniProt P08246); assay: Inhibitory effect on elastase (human neutrophil), spectrophotometric assay with MeOSuc-Ala-Ala-Pro-Val-pNA; type: biochemical; conditions: N: human neutrophil elastase; pH 8.0, 37° C.; read-out: IC50
# T1 construct: using elastase from human neutrophil or human sputum; from tissue; host or cells: human neutrophil
# T1 sequence (P08246 30-247 limits assumed): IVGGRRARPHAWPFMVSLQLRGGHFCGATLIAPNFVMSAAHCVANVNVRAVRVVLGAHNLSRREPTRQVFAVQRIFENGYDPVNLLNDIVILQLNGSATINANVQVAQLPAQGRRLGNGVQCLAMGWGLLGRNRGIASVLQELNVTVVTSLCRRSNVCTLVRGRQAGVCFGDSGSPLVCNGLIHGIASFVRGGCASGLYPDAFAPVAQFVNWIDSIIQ
# Experimental: (§1) Namely, it is a spectrophotometric assay using the synthesized substrate, methoxysuccinyl-alanyl-alanyl- prolyl-valyl-p-nitroanilide(MeOSuc-Ala-Ala-Pro-Val-pNA, Cambridge research biochemical Co.) which has high specificity on neutrophil elastase.
# (§2) 20 μl of a test compound of various concentrations and 20 μl of enzyme solution (13 unit/ml) were added to 400 μl of 0.1M sodium phosphate buffer (pH 8.0). The mixture was incubated at 37° C. for 5 min, and then 20 μl of the substrate was added to the mixture in a final volume of 460 μl. The reaction was conducted by incubating thus obtained mixture at 37° C. for 20 min. The reaction was stopped by the addition of 300 μl of 20% acetic acid into the reaction mixture, and then p-nitroanilide released was measured by the spectrophotometrically at 405 nm.
# (§3) Inhibition percents of the test compounds were calculated by the following equation:
# (§4) Inhibition %=[1-(OD 405 nm value of the testing sample-background)/(OD 405 nm value of the control-background)]×100
# human sputum elastase = molecular target: T2, human sputum elastase (Homo sapiens, UniProt P08246); assay: Inhibitory effect on elastase (human sputum), spectrophotometric assay with MeOSuc-Ala-Ala-Pro-Val-pNA; type: biochemical; conditions: S: human sputum elastase; pH 8.0, 37° C.; read-out: IC50
# T2 sequence (P08246 30-247 limits assumed): T1 sequence (P08246 30-247 limits assumed)
# Experimental: as §1, §2, §3, §4
# [2] = Cytotoxicity test (MTT, three days); type: cell-based; conditions: mouse, l1210 cells, read-out: Survival rate; for viability at 72 h, 1 µM: final concentration 1 μM; for viability at 72 h, 5 µM: final concentration 5 μM; for viability at 72 h, 10 µM: final concentration 10 μM
# Experimental: L1210 (lymphocytic leukemia, mouse) cells in a logarithmic growth phase were collected and washed twice with HBSS (Hanks' balanced salt solution). The L1210 cells were resuspended at 5.0×10^4 cells/ml in RPMI 1640 medium containing 10% heat-inactivated fetal bovine serum. The cell suspension was dispensed in 100 μl aliquots into 96 well multi-plate. Each of compounds to be tested was dissolved in dimethylsulfoxide at a concentration of 10 mM. The solutions were stepwise diluted with RPMI 1640 solution containing 10% heat-inactivated fetal bovine serum. Each of the diluted samples was dispensed in an amount of 10 μl well in the 96 well multi-plate containing L1210 cells and incubated for three days at 37° C. in humidified 5% CO2 -air mixture. To each of the wells, 10 μl of MTT (3-(4,5-dimethylthiazol-2-yl)-2,5-diphenyltetrazolium bromide)(5 mg/ml in phosphate buffer free of Ca^2+ and Mg^2+) was added. Cultivation was continued for additional five hours at 37° C. in humidified 5% CO2 -air mixture. To each of the wells, 100 μl of 20% SDS (sodium dodecyl sulfate) in 0.01N HCl was added to solubilize the MTT formazan.
# Absorbance was measured at 630 nm as a reference wavelength and 570 nm as a measuring wavelength using Corona Electric MTP22 Microplate Photometer. The measurement was conducted three times for each of the samples to obtain an average value and a standard deviation. Survival rate was calculated by the following equation:
# Survival rate (5)=[(absorbance of test sample)/(absobance of […]
Compound,IC50 [1],IC50 (human sputum elastase),"viability at 72 h, 1 µM [2]","viability at 72 h, 5 µM [2]","viability at 72 h, 10 µM [2]"
"CC(C)(C)C(=O)Oc1ccc(-c2nnn(CC(=O)N3CCCCC3)n2)cc1 [Example 12, 4-[2-(Piperidinocarbonylmethyl)tetrazol-5-yl]phenyl pivalate]",0.51 µM,–,–,–,–
"CC(C)(C)C(=O)Oc1ccc(-c2nnn(CCc3ccccc3)n2)cc1 [Example 14, 4-[2-(2-Phenylethyl)tetrazol-5-yl]phenyl pivalate]",0.076 µM,–,–,–,–
"COC(=O)c1ccccc1Cn1nnc(-c2ccc(OC(=O)C(C)(C)C)cc2)n1 [Example 24, 4-[2-(2-Methoxycarbonylbenzyl)tetrazol-5-yl]phenyl pivalate]",0.1 µM,–,–,–,–
"CC(C)(C)C(=O)Oc1ccc(-c2nnn(CC(=O)Nc3ccccc3)n2)cc1 [Example 11, 4-[2-(N-Phenylcarbamoylmethyl)tetrazol-5-yl]phenyl pivalate]",0.85 µM,–,–,–,–
"CC(C)(C)C(=O)Oc1ccc(-c2nnn(COCc3ccccc3)n2)cc1 [Example 15, 4-[2-(Benzyloxymethyl)tetrazol-5-yl]phenyl pivalate]",0.094 µM,–,–,–,–
"CC(C)(C)C(=O)Oc1ccc(-c2nnn(Cc3ccccc3N)n2)cc1 [Example 78, 4-[2-(2-Aminobenzyl)tetrazol-5-yl]phenyl pivalate]",–,0.091 µM,103%,107%,93.7%
"CC(C)(C)C(=O)Oc1ccc(-c2nnn(C(C(=O)O)c3ccccc3)n2)cc1 (centres unmarked) [Example 69, 2-Phenyl-2-[5-(4-pivaloyloxyphenyl)tetrazol-2-yl]acetic acid]",–,0.82 µM,96.7%,105%,101%
"Cc1cc(-c2nnn(Cc3ccc(N(C)C)cc3)n2)ccc1OC(=O)C(C)(C)C [Example 49, 4-[2-[4-(Dimethylamino)benzyl]tetrazol-5-yl]-2-methylphenyl pivalate]",–,0.7 µM,103%,105%,110%
"COc1ccc(COCCCCn2nnc(-c3ccccc3OC(=O)C(C)(C)C)n2)cc1 [Example 22, 2-[2-[4-(4-Methoxybenzyloxy)butyl]tetrazol-5-yl]phenyl pivalate]",–,4.3 µM,102%,86.4%,86.7%
"COc1ccc(COc2ccc(Cn3nnc(-c4ccc(OC(=O)C(C)(C)C)cc4)n3)cc2)cc1 [Example 18, 4-[2-[4-(4-Methoxybenzyloxy)benzyl]tetrazol-5-yl]phenyl pivalate]",0.017 µM,0.16 µM,–,–,–
"CC(C)(C)C(=O)Oc1ccc(-c2nnn(CC(=O)O)n2)cc1 [Example 80, 5-(4-Pivaloyloxyphenyl)-2-tetrazoleacetic acid]",–,–,93.9%,98.1%,109%
"CC(C)Cn1nnc(-c2ccc(OC(=O)C(C)(C)C)cc2)n1 [Example 37, 4-[2-(2-Methylpropyl)tetrazol-5-yl]phenyl pivalate]",–,0.18 µM,92.5%,106%,95.5%
"COc1cc(-c2nnn(Cc3ccc(N(C)C)cc3)n2)ccc1OC(=O)C(C)(C)C [Example 48, 4-[2-[4-(Dimethylamino)benzyl]tetrazol-5-yl]-2-methoxyphenyl pivalate]",–,0.7 µM,99.4%,94.6%,86.1%
"COc1ccc(COCCCCn2nnc(-c3cccc(OC(=O)C(C)(C)C)c3)n2)cc1 [Example 23, 3-[2-[4-(4-Methoxybenzyloxy)butyl]tetrazol-5-yl]phenyl pivalate]",0.022 µM,–,104%,102%,94.3%
"CC(C)(C)C(=O)Oc1ccc(-c2nnn(CCCCC(=O)O)n2)cc1 [Example 93, 5-[5-(4-Pivaloyloxyphenyl)tetrazol-2-yl]valeric acid]",0.52 µM,–,–,–,–
"CC(C)[C@H](NC(=O)c1ccc(Cn2nnc(-c3ccc(OC(=O)C(C)(C)C)cc3)n2)cc1)C(=O)O [Example 67, N-[4-[5-(4-Pivaloyloxyphenyl)tetrazol-2-ylmethyl]benzoyl]-L-valine]",–,0.13 µM,92.2%,100%,90.1%
"CC(C)(C)C(=O)Oc1ccc(-c2nnn(CCCCCO)n2)cc1 [Example 74, 4-[2-(5-Hydroxypentyl)tetrazol-5-yl]phenyl pivalate]",0.098 µM,–,–,–,–
"CN(C)c1cc(-c2nnn(Cc3ccc(C(=O)O)cc3)n2)ccc1OC(=O)C(C)(C)C [Example 8, 4-[5-(3-Dimethylamino-4-pivaloyloxyphenyl)tetrazol-2-ylmethyl]benzoic acid]",–,0.23 µM,–,–,–
"CC(C)(C)C(=O)Oc1ccc(-c2nnn(Cc3cccc([N+](=O)[O-])c3)n2)cc1 [Example 26, 4-[2-(3-Nitrobenzyl)tetrazol-5-yl]phenyl pivalate]",–,0.27 µM,–,–,–

# The next lines start with results.
IC50 [1],IC50 (human sputum elastase),Compound,"viability at 72 h, 1 µM [2]","viability at 72 h, 5 µM [2]","viability at 72 h, 10 µM [2]"
–,4.4 µM,"CC(C)c1ccc(-n2nnc(-c3ccc(OC(=O)C(C)(C)C)cc3)n2)cc1 [Example 6, 4-[2-(4-Isopropylphenyl)tetrazol-5-yl)phenyl pivalate]",94.9%,88.7%,70.1%
0.062 µM,–,"COc1ccc(CCCCn2nnc(-c3ccc(OC(=O)C(C)(C)C)cc3)n2)cc1 [Example 21, 4-[2-[4-(4-Methoxyphenyl)butyl]tetrazol-5-yl]phenyl pivalate]",–,–,–
0.072 µM,–,"COc1ccc(Cn2nnc(-c3ccc(OC(=O)C(C)(C)C)cc3)n2)cc1 [Example 13, 4-[2-(4-Methoxybenzyl)tetrazol-5-yl]phenyl pivalate]",–,–,–
0.085 µM,–,"COc1ccc(CCn2nnc(-c3ccc(OC(=O)C(C)(C)C)cc3)n2)cc1 [Example 44, 4-[2-[2-(4-Methoxyphenyl)ethyl]tetrazol-5-yl]phenyl pivalate]",–,–,–
0.089 µM,–,"CN(C)CCOc1ccc(Cn2nnc(-c3ccc(OC(=O)C(C)(C)C)cc3)n2)cc1 [Example 46, 4-[2-[4-(2-Dimethylaminoethoxy)benzyl]tetrazol-5-yl]phenyl pivalate Hydrochloride]",–,–,–
0.08 µM,–,"CC(C)(C)C(=O)Oc1ccc(-c2nnn(Cc3ccc(O)cc3)n2)cc1 [Example 75, 4-[2-(4-Hydroxybenzyl)tetrazol-5-yl]phenyl pivalate]",–,–,–
–,0.17 µM,"CC(C)(C)C(=O)Oc1ccc(-c2nnn(Cc3ccccc3)n2)cc1 [Example 9, 4-(2-Benzyltetrazol-5-yl)phenyl pivalate]",93.9%,100%,98.1%
–,0.056 µM,"CC(C)(C)C(=O)Oc1ccc(-c2nnn(Cc3ccc(C(=O)O)cc3)n2)cc1 [Example 54, 4-[5-(4-Pivaloyloxyphenyl)tetrazol-2-ylmethyl]benzoic acid]",101%,107%,100%
0.09 µM,–,"COc1ccc(CCCn2nnc(-c3ccc(OC(=O)C(C)(C)C)cc3)n2)cc1 [Example 20, 4-[2-[3-(4-Methoxyphenyl)propyl]tetrazol-5-yl]phenyl pivalate]",–,–,–
0.065 µM,–,"COc1ccc(COCCn2nnc(-c3ccc(OC(=O)C(C)(C)C)cc3)n2)cc1 [Example 41, 4-[2-[2-(4-Methoxybenzyloxy)ethyl]tetrazol-5-yl]phenyl pivalate]",–,–,–
0.1 µM,–,"CC(C)(C)C(=O)Oc1ccc(-c2nnn(Cc3ccc(C(F)(F)F)cc3)n2)cc1 [Example 17, 4-[2-(4-Trifluoromethylbenzyl)tetrazol-5-yl]phenyl pivalate]",–,–,–
–,0.15 µM,"CC(C)(C)C(=O)Oc1ccc(-c2nnn(Cc3cccc(N)c3)n2)cc1 [Example 77, 4-[2-(3-Aminobenzyl)tetrazol-5-yl]phenyl pivalate]",–,–,–
–,0.18 µM,"CC(C)(C)C(=O)Oc1ccc(-c2nnn(Cc3ccc(N)cc3)n2)cc1 [Example 76, 4-[2-(4-Aminobenzyl)tetrazol-5-yl]phenyl pivalate]",–,–,–
–,0.11 µM,"CNc1ccc(Cn2nnc(-c3ccc(OC(=O)C(C)(C)C)cc3)n2)cc1 [Example 90, 4-[2-(4-Methylaminobenzyl)tetrazol-5-yl]phenyl pivalate]",–,–,–
–,0.058 µM,"CC(C)(C)C(=O)Oc1ccc(-c2nnn(Cc3ccc(NC(=O)CN)cc3)n2)cc1 [Example 87, 4-[2-[4-(Glycylamino)benzyl]tetrazol-5-yl]phenyl pivalate Hydrochloride]",–,–,–
–,0.58 µM,"CNc1ccc(Cn2nnnc2-c2ccc(OC(=O)C(C)(C)C)cc2)cc1 [Example 91, 4-[1-(4-Methylaminobenzyl)tetrazol-5-yl]phenyl pivalate]",–,–,–
